# Test results as given in publication PMC7465040, “Cytotoxic and Anti-Plasmodial Activities of Stephania dielsiana Y.C. Wu Extracts and the Isolated Compounds” (Molecules, 2020).
# Like-named read-outs stand apart in the source and are kept apart here.
# Legend:
# HeLa = assay: SRB cell proliferation assay, HeLa; assay type: cell-based, human; conditions: for IC50: 72 h, Table 2A, SRB, read-out: IC50 (μM ± SD) HeLa
# Protocol: (§1) In vitro anticancer study: The in vitro anti-proliferative tests were carried out as described previously, using aliquots of the cell lines used therein. Briefly, HeLa, MDA-MB-231 and MDA-MB-468, MCF7, and 184B5 and MCF 10A cell lines were purchased from ATCC. The identity of the cell lines presented in this study were verified by short tandem repeat profiling by Genetica DNA Laboratories (www.celllineauthentication.com) (April 8, 2015). MCF10A was grown in DMEM F12 medium supplemented with 0.02 μg/mL epidermal growth factor, 10% FBS, 10 μg/mL insulin and […] hydrocortisone. MDA-MB-468 were grown in DMEM supplemented with 10% FBS and antibiotics cocktail (100 μg/mL streptomycin, 100 units/mL penicillin and 250 ng/mL amphotericin B). SRB cell proliferation assays were carried out as previously described, with some minor modifications. The concentration range for all tested cell lines were from 100–0.39 μg/mL for extracts and 100–0.39 μM for pure compounds. […] All experiments were carried out at least twice.
# MDA-MB-468 = assay: SRB cell proliferation assay, MDA-MB-468; assay type: cell-based, human
# Protocol: as §1
# [1] = system: chloroquine-resistant W2 P. falciparum strain; assay: In vitro anti-plasmodial assay (HRP2 ELISA), W2; assay type: cell-based, Plasmodium falciparum; conditions: for IC50: 72 h, HRP2 ELISA, mean of five experiments, read-out: IC50 (μM ± SD) W2
# Protocol: Parasites were grown in A-positive human blood (Etablissement Français du Sang, Marseille, France) under controlled atmospheric conditions that consisted of 10% O2, 5% CO2, and 85% N2 at 37 °C with a humidity of 95%.
# In vitro anti-plasmodial assay: The two P. falciparum strains 3D7 and W2 were synchronized twice with sorbitol before use. The clonality of these strains was verified both in our laboratory and in an independent laboratory from the Worldwide Anti-malarial Resistance Network (WWARN) by PCR genotyping of the polymorphic genetic markers msp1 and msp2 and microsatellite loci. The compounds were re-suspended in methanol or DMSO 5% (v/v) and then diluted in methanol to obtain final concentrations ranging from 0.008 to 500 μg/mL (final concentration of 0.5% of methanol or DMSO). […] The plates were incubated for 72 h at 37 °C in controlled atmospheric conditions 5% CO2, 10% O2, and […]. After thawing the plates, haemolysed cultures were homogenized by vortexing the plates. Both the success of the drug susceptibility assay and the appropriate volume of haemolysed culture to use for each assay were determined for each clinical isolate during a preliminary HRP2 ELISA. Both the pre-test and subsequent ELISA assays were performed using a commercial kit (Malaria Ag Celisa, ref KM2159, Cellabs PTY LTD, Brookvale, Australia) according to the manufacturer’s recommendation. The optical density (OD) of each sample was measured with a spectrophotometer (Safire 2, Tecan, Lyon, France). […] The anti-plasmodial in vitro assay was performed five times for each product. The IC50 values represented the mean value calculated from five experiments. According to Hout, a selectivity index (SI) was based on the ratio between anti-parasitic and cytotoxic activities. In the case of our study, a SI was calculated between non-tumorigenic cell line 184B5 and parasites 3D7 or W2 and/or MCF10A and these two parasites.
# MCF7 = assay: SRB cell proliferation assay, MCF7; assay type: cell-based, human
# Protocol: as §1
# MDA-MB-231 cells = assay: Annexin V staining / IncuCyte apoptosis and proliferation assay; assay type: cell-based, human
# Protocol: Annexin V staining: Cell death mechanism and cell proliferation assays were analysed using the IncuCyte Apoptosis Assay method using the Annexin V Green reagent (Essen Biosciences, Ann Arbor, MI, USA) and the IncuCyte S3 and IncuCyte ZOOM software (Version 2018B, Bohemia, NY, USA) according to supplier’s protocol. Statistical analysis was carried out in Graph Pad Prism 5. All experiments were carried out at least twice.
# [2] = system: Aurora A, B, and C phosphorylation in HeLa cells arrested in mitosis; assay: Western blot, autophosphorylation of Aurora kinases; assay type: cell-based, human; conditions: 20 μM, 12 h
# Protocol: Western Blot analysis: Western blotting was carried out as described previously. The primary antibodies used were from Cell Signaling (Histone H3; p-Histone H3^S10 and Phospho-Aurora A (Thr288)/Aurora B (Thr232)/Aurora C (Thr198)) and used at recommended dilution. For cell synchronization at prometaphase, HeLa cells were treated with 50 ng/mL nocodazole (NZ) (Santa Cruz Biotechnology) for 12 h. All experiments were carried out at least twice.
smiles,measurement,setting,value
"COc1cccc2c1C(=O)c1nccc3cc4c(c-2c13)OCO4 [Oxostephanine 1, oxostephanine]",IC50,"HeLa; Homo sapiens, HeLa",1.73 µM
same,IC50,HeLa,1.76 ± 0.2 µM
same,Selectivity index (SI) 184B5 versus HeLa,"HeLa; Table 2B, non-cancer 184B5 vs cancer HeLa",0.94
same,Selectivity index (SI) MCF10A versus HeLa,"HeLa; Table 2B, non-cancer MCF10A vs cancer HeLa",1.40
same,"Increase in effectiveness compared with stephanine (3), HeLa",HeLa; ratio of IC50,2 fold
same,IC50,"MDA-MB-468; Homo sapiens, MDA-MB-468, Table 2A, SRB, 72 h, read-out: IC50 (μM ± SD) MDA-MB-468",2.26 ± 0.54 µM
same,Selectivity index (SI) 184B5 versus MDA-MB-468,"MDA-MB-468; Table 2B, non-cancer 184B5 vs cancer MDA-MB-468",0.73
same,Selectivity index (SI) MCF10A versus MDA-MB-468,"MDA-MB-468; Table 2B, non-cancer MCF10A vs cancer MDA-MB-468",1.10
same,IC50,[1],216 ± 31.5 µM
same,IC50,"[1]; Plasmodium falciparum, W2, 72 h",216 to 226 µM
same,SI W2 184B5,"[1]; Table 3, selectivity index between 184B5 and parasites W2",0.007
same,IC50,"MCF7; Homo sapiens, MCF7, Table 2A, SRB, 72 h, read-out: IC50 (μM ± SD) MCF7",4.35 ± 1.2 µM
same,Selectivity index (SI) 184B5 versus MCF7,"MCF7; Table 2B, non-cancer 184B5 vs cancer MCF7",0.38
same,Selectivity index (SI) MCF10A versus MCF7,"MCF7; Table 2B, non-cancer MCF10A vs cancer MCF7",0.57
same,Time to inhibition of proliferation,MDA-MB-231 cells; MDA-MB-231,≤ 12 h
same,Apoptotic effect compared to camptothecin,"MDA-MB-231 cells; MDA-MB-231, 10 μM, 1-way ANOVA p < 0.05",much stronger apoptotic effect
same,Time to start of apoptosis (Annexin V),"MDA-MB-231 cells; MDA-MB-231, post-treatment",≤ 16 h
same,"Autophosphorylation of Aurora kinases A, B and C",[2],inhibits the auto-phosphorylation of all three Aurora kinases
